Assay results taken from patent EP0354042A2, “Aminobenzoic-acid derivatives to reduce side effects induced by an administration of immuno-suppressant” (priority 1988, dated 1990).

Experiments:
Wistar male rats [1] = experiment: Saccharide tolerance test (pancreas function) of rats given CsA with the present substance; assay type: in vivo; details: CsA 25 mg/kg/day i.p. 3 weeks plus present substance 300 mg/kg/day orally
Procedure: (§1) Various clearance tests and a saccharide tolerance test were performed after completion of the administrations. Then, after sacrificing the rats, their blood was taken for serum biochemical and general blood tests.

Bacillus subtilis H17 = experiment: Mutagenicity Rec-assay, recombination repair proficient strain
Procedure: (§2) First, mutagenecity was studied with Rec-assay. […] The present substance was dissolved with sterlized water, 0.05 ml of the solution was absorbed by a round filter paper having a diameter of 8 mm and immediately the filter paper was laid on the medium (B-II agar) in a manner to cover each of the satrt point of the streak. Then, the mdium was cultured for 16 hours at a temperature of 37°C and measured growth inhibited area. Kanamycin was used as a negative control and mitomycin as a positive control.

[2] = tested on: TA100 of Salmonella typhimurium; experiment: Reversion assay (reversion colony test) TA100; assay type: cell-based
Procedure: (§3) In addition, a reversion assay was performed using TA98 and TA100 of Salmonella typhimurium (both are histidine-requiring bacteria).
(§4) 10% by volume of 0.5 mM bithion solution containing 0.5 mM histidine was added to a soft agar solution (prepared with 6g of NaCl, 6g of agar and 1,000 ml of distilled water). Then, 0.1 ml of a solution containing 1 x 10⁸ of the bacteria and 0.1 ml of a solution of the present substance were added to 2 ml of the soft agar solution, mixed well and obtained soft agar solution was multilayered on a minimal agar medium. The medium layered was cultured at 37°C for 2 days and number of reversion colonies was counted. Furylfuramide (AF2) was used as a positive control.

[3] = Body weight of rats given CsA with the present substance; assay type: in vivo, Wistar male rats; details: at completion of the test; CsA 25 mg/kg/day i.p. 3 weeks plus present substance 300 mg/kg/day orally
Procedure: as §1

Wistar male rats [4] = experiment: Serum biochemical test, total bilirubin (liver function) of rats given CsA with the present substance; assay type: in vivo; details: CsA 25 mg/kg/day i.p. 3 weeks plus present substance 300 mg/kg/day orally
Procedure: as §1

Bacillus subtilis M45 = experiment: Mutagenicity Rec-assay, recombination repair deficient strain; details: for Growth Inhibited Area M45 - H17: difference between strains
Procedure: as §2

Jcl:ICR mice = experiment: Acute toxicity (LD50, Litchfield-Wilcoxon); assay type: in vivo; details: observed 7 days; for LD₅₀ Value Intraperitoneal: in physiological saline solution; for LD₅₀ Value Oral: oral by stomach sonde, in distilled water
Procedure: The acute toxicity was studied with Jcl:ICR mice through intraperitoneal route and oral route. For intraperitoneal route, the present substance was dissolved in a physiological saline solution and a predetermined dose of the substance was administered with an injector to the cavity. For oral route, the present substance was dissolved in a distilled water and administered forcibly through a stomach sonde.
After the administration, observation of toxicopathic symptoms of the mice were continued for 7 days and based on time to time death rates of the mice, LD₅₀ values were calculated. Both surviving and dead mice were anatomized and observed certain organs.

Wistar male rats [5] = experiment: Kidney function (inulin clearance, serum creatinine) of rats given CsA with the present substance; assay type: in vivo; details: CsA 25 mg/kg/day i.p. 3 weeks plus present substance 300 mg/kg/day orally
Procedure: as §1

human lymphocyte = experiment: Mixed lymphocyte culture, 3H-thymidine uptake (proliferation of lymphocytes); assay type: cell-based; details: CsA 0.1 µg/ml plus present substance 100 µg/ml, cultured 6 days;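 further: percent suppression of proliferation derived from uptake with CsA alone versus CsA plus substance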
Procedure: A mixture of 50 µl of human lymphocyte (1.6 x 10⁶/ml) with 50 µl of the lymphocytes treated with mitomycin C (MMC) (1.7 x 10⁶/ml) was cultured for 6 days and an uptake of ³H-thymidine, an index of proliferation of lymphocyte, was studied. The medium used for culture comprised bovine fetal serum (10% in quantity) and RPMI 1640 (90% in quantity). […] From the calculated ratio, the effects of the present substance on immuno function were studied.

[6] = tested on: TA98 of Salmonella typhimurium; experiment: Reversion assay (reversion colony test) TA98; assay type: cell-based
Procedure: as §3, §4

[7] = 5,000 µg/disk, 16 hours at 37°C
[8] = 5,000 µg/disk, 37°C for 2 days, Drug-free Control 149
[9] = 5,000 µg/disk, 37°C for 2 days, Drug-free Control 13

SMILES	Blood sugar value measured 10 minutes after the test (Wistar male rats [1])	Insuline Value 10 Min.After The Test (Wistar male rats [1])	Insuline Value Before The Test (Wistar male rats [1])	Growth Inhibited Area H17 (Bacillus subtilis H17; 500 µg/disk, 16 hours at 37°C)	Growth Inhibited Area H17 (Bacillus subtilis H17; [7])	No. of Reversion Colony TA100 [2, 8]	Body Weight [3]	TBI (seerum total bilirubin value) (Wistar male rats [4])	Growth Inhibited Area M45 (Bacillus subtilis M45; 500 µg/disk, 16 hours at 37°C)	Growth Inhibited Area M45 - H17 (Bacillus subtilis M45; 500 µg/disk)	Growth Inhibited Area M45 (Bacillus subtilis M45; [7])	Growth Inhibited Area M45 - H17 (Bacillus subtilis M45; 5,000 µg/disk)	LD₅₀ Value Intraperitoneal (Jcl:ICR mice)	LD₅₀ Value Oral (Jcl:ICR mice)	Kidney Function Inulin Clearance (Wistar male rats [5])	Kidney Function Serum Creatinine (Wistar male rats [5])	Depressing Ratio (human lymphocyte)	No. of Reversion Colony TA98 [6, 9]	other results
O=C(O)c1ccc(NC2OC[C@H](O)[C@H](O)[C@H]2O)cc1 (stereo partly drawn) [Compound 2, p-Aminobenzoic acid-N-L-arabinoside]	588 mg/dL	6.12 mµ/ml	4.02 mµ/ml	0 mm	0 mm	51 n/plate	220 g	0.35 mg/dL	0 mm	0 mm	0 mm	0 mm	10220 mg/kg	10800 mg/kg	1.81 mL/min	0.65 mg/dL	26%	3 n/plate	–
O=C([O-])c1ccccc1NC1OCC(O)C(O)C1O.[Na+] [Compound 4, o-Aminobenzoic acid-N-L-arabinoside]	591 mg/dL	6.22 mµ/ml	3.89 mµ/ml	0 mm	4 mm	59 n/plate	218 g	0.37 mg/dL	0 mm	0 mm	8 mm	4 mm	7480 mg/kg	6350 mg/kg	1.78 mL/min	0.67 mg/dL	26%	4 n/plate	–
O=C(O)c1ccc(NC2OC[C@@H](O)[C@H](O)[C@H]2O)cc1 (stereo partly drawn) [Compound 6, p-Aminobenzoic acid-N-D-xyloside]	598 mg/dL	6.20 mµ/ml	4.28 mµ/ml	0 mm	0 mm	58 n/plate	208 g	0.35 mg/dL	0 mm	0 mm	0 mm	0 mm	11040 mg/kg	11750 mg/kg	1.70 mL/min	0.66 mg/dL	26%	4 n/plate	–
O=C(O)c1ccccc1NC1OC[C@@H](O)[C@H](O)[C@H]1O (stereo partly drawn) [Compound 8, o-Aminobenzoic acid-N-D-xyloside]	605 mg/dL	6.18 mµ/ml	4.21 mµ/ml	0 mm	3 mm	166 n/plate	211 g	0.38 mg/dL	0 mm	0 mm	7 mm	4 mm	9270 mg/kg	6350 mg/kg	1.72 mL/min	0.65 mg/dL	27%	4 n/plate	–
O=C(O)c1ccc(NC2O[C@H](CO)[C@@H](O)[C@H](O)[C@H]2O)cc1 (stereo partly drawn) [Compound 10, p-Aminobenzoic acid-N-D-glucoside]	612 mg/dL	6.02 mµ/ml	4.05 mµ/ml	0 mm	0 mm	104 n/plate	235 g	0.36 mg/dL	0 mm	0 mm	0 mm	0 mm	> 15000 mg/kg	> 15000 mg/kg	1.85 mL/min	0.65 mg/dL	26%	11 n/plate	–
O=C([O-])c1ccccc1NC1O[C@H](CO)[C@@H](O)[C@H](O)[C@H]1O.[Na+] (stereo partly drawn) [Compound 12, o-Aminobenzoic acid-N-D-glucoside]	589 mg/dL	6.12 mµ/ml	4.11 mµ/ml	0 mm	2 mm	151 n/plate	232 g	0.36 mg/dL	0 mm	0 mm	5 mm	3 mm	13380 mg/kg	8960 mg/kg	1.88 mL/min	0.64 mg/dL	27%	5 n/plate	–
O=C(O)c1ccc(NC2O[C@H](CO)[C@H](O)[C@H](O)[C@H]2O)cc1 (stereo partly drawn) [Compound 14, p-Aminobenzoic acid-N-D-galactoside]	584 mg/dL	6.10 mµ/ml	4.13 mµ/ml	0 mm	0 mm	51 n/plate	215 g	0.33 mg/dL	0 mm	0 mm	0 mm	0 mm	12000 mg/kg	14550 mg/kg	1.88 mL/min	0.66 mg/dL	26%	7 n/plate	–
O=C([O-])c1ccccc1NC1O[C@H](CO)[C@H](O)[C@H](O)[C@H]1O.[Na+] (stereo partly drawn) [Compound 16, o-Aminobenzoic acid-N-D-galactoside]	587 mg/dL	6.16 mµ/ml	4.22 mµ/ml	0 mm	1 mm	151 n/plate	210 g	0.34 mg/dL	0 mm	0 mm	6 mm	5 mm	7420 mg/kg	6100 mg/kg	1.81 mL/min	0.65 mg/dL	26%	6 n/plate	–
NC(=O)/C(=C\c1ccc([N+](=O)[O-])o1)c1ccco1 [Furylfuramide (AF2), Furylfuramide, reference compound]	–	–	–	–	–	–	–	–	–	–	–	–	–	–	–	–	–	–	No. of Reversion Colony TA100 ([2]; 0.1 µg/disk, positive control): 911 n/plate; No. of Reversion Colony TA98 ([6]; 0.1 µg/disk, positive control): 167 n/plate
NC[C@H]1O[C@H](O[C@H]2[C@H](O)[C@@H](O[C@H]3O[C@H](CO)[C@@H](O)[C@H](N)[C@H]3O)[C@H](N)C[C@@H]2N)[C@H](O)[C@@H](O)[C@@H]1O [Kanamycin, reference compound]	–	–	–	–	–	–	–	–	–	–	–	–	–	–	–	–	–	–	Growth Inhibited Area H17 (Bacillus subtilis H17; Bacillus subtilis, 16 h, 10 µg/disk, pH 7): 4 mm; Growth Inhibited Area M45 (Bacillus subtilis M45; 10 µg/disk, negative control): 5 mm; Growth Inhibited Area M45 - H17 (Bacillus subtilis M45; 10 µg/disk, negative control): 1 mm
